Data set [1] can be described thus: Circulating platelet number in treated mice. It is filed as in vivo, mouse. The conditions noted are these: 100 mg/Kg/day i.p. for three days, FVB/tac mice. As for the experimental part:
To ascertain whether exogenous (−) carvone in mice impacted platelet reactivity and thrombosis in vivo, FVB/tac mice were administered (−) carvone at a dose of 100 mg/Kg/day for three days by i.p. injection. Platelets were then isolated from mice and thrombin-stimulated ex vivo. Thrombin-induced platelet degranulation ex vivo was inhibited in platelets from (−) carvone-treated mice (FIG. 7C). […] This effect is consistent with adequate absorption and distribution of (−) carvone to attenuate platelet activation and thrombosis in vivo.

Data set [2] relates to healthy platelets. As to the kind of experiment: Platelet calcium transients (Fura-2 fluorescence). It is filed as cell-based, human. The note with it: 300 μM, n=5. The source says:
(§1) FIG. 5. A conserved olfactory receptor signal transduction pathway in healthy platelets. A. Proposed platelet OR2L13 signal transduction. Levo-carvone (L-Carvone) binds to OR2L13 on platelets to generate cAMP through adenylyl cyclase activation, and cAMP changes the cytosolic concentration of calcium (Ca 2+) directly and chloride conductance (C1^−) while inhibiting platelet reactivity through known, well-described mechanisms involving protein kinase (PKA). […] C. […] Data are mean±SEM (n=4, MQAE fluorescence). *P=0.0134 (−) carvone vs control by student's t-test. D. Carvone stimulation (300 μM) of healthy platelets promotes local brief calcium transients 20-80% above baseline is sustained compared with thrombin which attenuates over time (n=5 human platelets, Fura-2 fluorescence). MQAE=-[ethoxycarbonylmethyl]-6-methoxy-quinoliniumbromide. Arrowhead=drug addition.
(§2) ORs and downstream anoctamin proteins are generally expressed in afferent olfactory neurons (23). ORs are GPCRs positively linked to AC to increase cAMP (24), triggering […] as a downstream calcium-sensitive chloride channel (25). If this signal transduction pathway is conserved in platelets, OR2L13 activation should generate cAMP in platelets coincident with changes in platelet Cl^−- and Ca^2+ flux (schematic, FIG. 5A). […]

Data set [3] deals with healthy platelets. As to the kind of experiment: Platelet chloride efflux (MQAE fluorescence). It counts as cell-based, human. The conditions noted are these: 300 μM, n=4.
Source text: as §1, §2

Data set [4] relates to MMP2. As to the kind of experiment: Platelet lysate MMP2 activity by zymography in AAA model. The conditions noted are these: isolated platelets from treated wild-type mice, week 4 following AAA.
Another data set has as its system healthy human blood. As to the kind of experiment: Thrombus formation in collagen-I coated microfluidics chamber at high shear. It counts as cell-based. The note with it: 300 μM, 30 minutes, 40 dyn/cm^2, three minutes. As for the experimental part: (§3) FIG. 7. Biomechanical platelet activation is inhibited by OR2L13 agonists. A. In vitro exposure of healthy platelets to steady laminar flow (S-flow) or disturbed flow (D-flow) for 60 mins after 30 minute pre-treatment with vehicle or (−) Carvone (300 μM). Platelet activation quantified by surface p-selectin expression as mean fluorescence intensity (MFI)±SEM, n=3 in each group by 2-way ANOVA. B. Calcein green-loaded healthy human blood flowing through a collagen-I coated microfluidics chamber at 40 dyn/cm^2 and imaged by confocal microscopy for adherent thrombus (green puncta) at three minutes. […] Differences between groups was assessed by the student's t-test, * P<0.0001 vs. vehicle. […]
(§4) Healthy human blood loaded with the fluorophore calcein green at room temperature (10 μM, pH 7.4 for 20 minutes), and incubated with odorant ligands for 30 minutes. […] D-flow shear cannot be accurately determined, though the same rotational speed was used with S-flow and D-flow always run alongside no flow (static) conditions for internal consistency. Following exposure to S-flow or D-flow, platelets were imaged by confocal microscopy, surface marker proteins were determined quantitatively by flow cytometry, and platelet proteins were assessed by Western blotting.
(§5) We next evaluated biomechanical platelet activation by S-flow and D-flow. […]

In data set [5] the test system is platelets from FVB/tac mice. The data set can be described thus: Ex vivo thrombin-stimulated platelet activation after in vivo dosing. Details: species or system mouse. The note with it: 100 mg/Kg/day i.p. for three days. On the procedure: (§6) FIG. 7. Biomechanical platelet activation is inhibited by OR2L13 agonists. A. In vitro exposure of healthy platelets to steady laminar flow (S-flow) or disturbed flow (D-flow) for 60 mins after 30 minute pre-treatment with vehicle or (−) Carvone (300 μM). Platelet activation quantified by surface p-selectin expression as mean fluorescence intensity (MFI)±SEM, n=3 in each group by 2-way ANOVA. B. Calcein green-loaded healthy human blood flowing through a collagen-I coated microfluidics chamber at 40 dyn/cm^2 and imaged by confocal microscopy for adherent thrombus (green puncta) at three minutes. Data are represented as mean thrombus area of random fields±SEM, n=6-7 in each group following 30 minutes of vehicle (0.25% DMSO) or (−) carvone treatment (300 μM). Differences between groups was assessed by the student's t-test, * P<0.0001 vs. vehicle. C. WT Fvb/tac mice were given 100 mg/Kg/day (−) carvone IP for 3 days. Platelets were isolated and stimulated in the presence of thrombin. […] D. Time to hemostasis in mice treated with (−) carvone following surgical amputation of tail tip in seconds±SEM, n=6-9 in each group, *P=0.0046 vs. vehicle by Mann Whitney U.
(§7) To ascertain whether exogenous (−) carvone in mice impacted platelet reactivity and thrombosis in vivo, FVB/tac mice were administered (−) carvone at a dose of 100 mg/Kg/day for three days by i.p. injection. […]

For data set [6], the system named is FVB/tac mice. The data set can be described thus: Murine AAA model (topical elastase, BAPN, anti-TGFβ), aortic diameter by ultrasound.
Experimental: To augment aneurysm growth and induce ILT as described (26), anti—TGFβ blocking antibody (250 μg/mouse) was injected i.p. three times weekly starting the day of surgery. Each mouse (20-30 g in weight) is given 1 mL subcutaneous physiologic saline before surgical incision to account for insensible volume losses with gut externalization. Surgical procedures were conducted on a surgical heating pad at 37 ° C. Mice were anesthetized with isoflurane anesthesia (3% by nosecone) using oxygen as the carrier. Buprenorphine (0.05 mg/Kg) is given 30 minutes prior to skin incision. The area of incision is cleaned with 70% ethanol and betadine three times, and then infiltrated gently with local anesthesia (bupivacaine 5 mg/Kg SQ immediately prior to incision). A midline abdominal incision is made through the skin. The rectus sheath was divided at the Linea Alba. The intestines are exteriorized with a Qtip to the left of mouse onto gauze soaked with saline above and below to prevent drying. Whatman paper 6 mm×9 mm slices were placed on top of aorta below the bifurcation of the renal arteries. […] Hyperalgesia was assessed immediately after the procedure, and then twice daily for 48 hrs, and maintenance dose buprenorphine (0.05 mg/Kg) was given 8 hrs post-surgery, and then maintained at this dose for 48 hrs post-surgery. […]
In data set [7] the test system is healthy platelets. As to the kind of experiment: Flow cone and plate exposure to S-flow or D-flow, surface p-selectin by FACS. It is filed as cell-based, human. The conditions noted are these: 300 μM, 30 minute pre-treatment, 60 mins flow. On the procedure: as §3, §4, §5
(Flow cytometry measures light scatter and fluorescence of single cells or particles in a stream.)

For data set [8], the system named is platelets from healthy humans. The data set can be described thus: Light transmission aggregometry, ADP-induced platelet aggregation. The conditions noted are these: 30 minutes preincubation, ADP 0.1 μM. It is filed as cell-based, human. As for the experimental part: FIG. 6. […] A. Platelets were isolated from healthy humans and preincubated with (−) carvone or (+) carvone (300 μM) for 30 minutes. Platelets were stimulated with ADP (0.1 μM) and light transmission aggregometry assessed platelet activation. Representative tracings for each agonist are shown. B. Carvone (300 μM) or forskolin (10 μM) incubation individually or together for 30 minutes followed by platelet stimulation with ADP (0.1 μM). Light transmission aggregometry assessed platelet activation. Representative aggregometry tracings are shown. V=vehicle, C=(−)carvone, F=forskolin. Differences between groups by one-way ANOVA followed by Bonferroni correction *P<0.0001, **P=0.0003, ***P<0.0001 vs. vehicle (n=3). C. […] D. Platelets isolated from healthy humans and preincubated with (−) carvone (0-500 μM) for 30 minutes then stimulated with ADP (0.1 μM). Light transmission aggregometry assessed platelet activation. Representative tracings for each agonist are shown. E. Summary data for each concentration of (−) carvone as mean±SEM by ANOVA in the presence of ADP stimulation (0.1 μM). The downward red arrow is ADP in the presence of vehicle to which all data points were compared. *P<0.05 vs. vehicle, n=3 in each group by ANOVA, followed by Bonferroni correction. The broken blue line indicates the log IC50 concentration of (−) carvone. […]

For a further data set, the system named is human platelets. As to the kind of experiment: cAMP generation in human platelets. It counts as cell-based. The note with it: 300 μM, 5 minutes, n=7.
Source text: as §1, §2

In data set [9] the test system is MMP2. The data set can be described thus: Aortic lysate MMP activity by zymography in AAA model. The conditions noted are these: daily 100 mg/Kg i.p., aortic lysate at week 4 following AAA. It is filed as in vivo, mouse. From the text:
We previously reported that platelet matrix metalloproteinase (MMP) activity is increased in myocardial infarction (7, 27). Given that patients with AAA show less aortic growth and rupture when taking aspirin and growth and rupture are linked to MMP activity (10), we hypothesized that circulating platelets in patients with AAA may synthesize and secrete MMPs. Platelet MMP9 activity was enhanced and the MMP9 Tissue Inhibitor of MMP9 (TIMP1) was reduced in AAA compared to healthy conditions (FIG. 9A). Platelet MMP9 content was unchanged in healthy compared with AAA platelets. Aortic tissue as well as luminal thrombus from patients with infrarenal AAA compared to non-aneurysmal cadaveric aorta had increased expression and activity of MMP9.

Data set [10] deals with FVB/tac mice. The data set can be described thus: Tail bleeding time (time to hemostasis after tail tip amputation). It counts as in vivo, mouse. The note with it: 100 mg/Kg/day i.p. for three days. As for the experimental part:
as §6, §7

For data set [11], the system named is clinical population with AAA. The conditions noted are these: large clinical population (ref 10); cited from earlier work.
For the next data set, the system named is patients with small AAA. The conditions noted are these: randomized clinical trial (ref 14); cited from earlier work.

SMILES strings stand for the structures.

For the molecule `C=C(C)[C@@H]1CC=C(C)C(=O)C1` (single isomer, unassigned) [(−) carvone], the circulating platelet number entry in data set [1] is on record as “without affecting the circulating platelet number”. Moreover, the “local brief calcium transients above baseline” value with healthy platelets [2] is recorded as 20-80%.

Regarding `C=C(C)C1CC=C(C)C(=O)C1` (single isomer, unassigned; (-)) [(−) carvone], the chloride efflux entry in the data set with healthy platelets [3] is given as “promotes chloride efflux”. Also, in the data set with MMP2 [4], the “platelet MMP2 activity compared to control mice” value was “decreased”. In addition, in the data set with healthy human blood, the “thrombosis in whole blood (thrombus area)” value is “attenuated”. Also, the “thrombin-induced platelet degranulation ex vivo” value in data set [5] is given as “inhibited”. Also, the “AAA growth (aortic diameter by ultrasound)” value with FVB/tac mice [6] (100 mg/Kg/day i.p. starting at day 7, fvb/tac mice) is on record as “attenuated AAA growth”. Besides, in the data set with healthy platelets [7], the “S-flow / D-flow induced platelet activation (surface p-selectin)” value is on record as “attenuated only D-flow induced platelet activation”. Further, in data set [8] (0-500 μM), the ADP-induced platelet aggregation result is “blunted ADP-induced platelet aggregation dose-dependently”. The “anti-platelet effect, (−) versus (+) enantiomer” value in data set [8] (300 μM) was “more potent anti-platelet effect”. For the same molecule, the “cAMP generation in platelets” value with human platelets is “generates cAMP”. Moreover, in the data set with MMP2 [9], the “MMP2 activity in the aorta” value is recorded as “decreased MMP2 activity in the aorta”. Also, in the data set with FVB/tac mice [10], the tail bleeding times entry was “prolonged”.

Turning to `CC(=O)Oc1ccccc1C(=O)O` [aspirin, reference compound], the “AAA growth in patients” value in [11] was “limits AAA growth”. The “AAA growth (aortic diameter by ultrasound)” value with FVB/tac mice [6] (30 mg/L in drinking water starting at day 7, fvb/tac mice) was “attenuated AAA growth similarly to aspirin”.

Take `CCCSc1nc(N[C@@H]2C[C@H]2c2ccc(F)c(F)c2)c2nnn([C@@H]3C[C@H](OCCO)[C@@H](O)[C@H]3O)c2n1` [ticagrelor]: the “AAA growth in patients” value in the data set with patients with small AAA was “did not alter AAA growth”.
